Test results reported in patent publication US12465607B2, “ALK inhibitors for treatment of ALK-negative cancer and plasma cell-mediated diseases” (UNIVERSITETET I OSLO, priority 2019, dated 2025).
Entries after “also recorded” stand apart in the source; their conditions may differ.

Key:
LTK = target: T1, LTK (Homo sapiens, UniProt P29376); test: LTK inhibition: immunoblot of phosphorylated LTK in cells expressing LTK; assay type: cell-based; settings: FIG. 5A: HeLa cells expressing flag-tagged LTK, 1 μM, 30 minutes
T1 construct: expressed in transfected cells; host or cells: HeLa cells
Protocol: (§1) Cells were washed twice with PBS and collected in lysis buffer (50 mM Tris-HCl, pH7.4; 1 mM EDTA, 100 mM NaCl, 0.1% SDS and 1% NP-40) supplemented with proteinase and phosphatase inhibitor (Pierce Protease and Phosphatase Inhibitor Mini Tablets, EDTA-free). Lysates were incubated on ice for 10 minutes followed by clearing centrifugation at 20,000×g at 4° C. for 10 min. Supernatants were transferred into fresh tubes and reducing loading buffer was added. Lysates were subjected to SDS-PAGE and transferred onto a nitrocellulose membrane using semi-dry transfer. The membrane was blocked (in ROTI buffer (Roth) or 5% milk in PBS with 0.1% tween) and probed with the appropriate primary antibodies. Subsequently membranes were incubated with horseradish peroxidase-conjugated secondary antibody. Immunoblots were developed using a chemiluminescence reagent (ECL clarity, BioRad) and imaged using ChemiDoc (BioRad).

L363-BTZ = test: Myeloma cell line viability, CCK-8, 24 hr; assay type: cell-based, human; settings: Homo sapiens; L363-BTZ, 24 hr treatment
Protocol: (§2) The Results are the means of 3 independent experiments. Note the concentration-dependent reduction of viability of myeloma cells.
(§3) The cell lines used were the human multiple myeloma cell lines L363 (DSMZ catalogue number ACC 49), AMO-1 (DSMZ catalogue number ACC 538) and ARH-77 (ATCC CRL-1621).
(§4) Multiple myeloma cell lines were maintained in RPMI-1640 culture medium (Sigma-Aldrich, Buchs, Switzerland) supplemented with 10% heat-inactivated fetal bovine serum (FBS), 100 μg/ml streptomycin and 100 U/ml penicillin/streptomycin (Sigma-Aldrich, Buchs, Switzerland). The bortezomib-resistant cell lines were established and maintained from their parental cell line by continuous drug exposure>12 months to their parental cell lines (Soriano et al, Leukemia 30: 2198-2207, 2016).
(§5) The viability of the cells was determined 24 hr post treatment using Cell Counting Kit-8 (CCK-8; MedChemExpress, NJ, USA) according to the manufacturer's instructions.

L363 = test: Myeloma cell line viability, CCK-8, 24 hr; assay type: cell-based, human; settings: Homo sapiens, L-363; L363, 24 hr treatment
Protocol: as §2, §3, §4, §5

AMO-1-BTZ = test: Myeloma cell line viability, CCK-8, 24 hr; assay type: cell-based; settings: Homo sapiens, 24 hr treatment
Protocol: as §2, §3, §4, §5

AMO-1 = test: Myeloma cell line viability, CCK-8, 24 hr; assay type: cell-based; settings: Homo sapiens, AMO1; AMO-1, 24 hr treatment
Protocol: as §2, §3, §4, §5

multiple myeloma cells = test: Cytotoxic activity against multiple myeloma cells (FIG. 4, L363, AMO-1 and bortezomib-resistant clones); assay type: cell-based, human; settings: FIG. 4, 24 hr treatment
Protocol: as §2, §3, §4, §5

HeLa cells = test: ER-to-Golgi trafficking in HeLa cells (ERES staining, mannosidase-II RUSH reporter); assay type: cell-based; settings: RUSH reporter 20 min after biotin
Protocol: (§6) In A, HeLa cells expressing flag-tagged LTK were treated with 1 μM of crizotinib or ceritinib for 30 minutes. Afterwards, cells were lysed and immunoblotted against phosphorylated LTK, which is used as a surrogate for the active form of LTK. […] B, HeLa cells were treated with 1 μM ceritinib for 30 minutes followed by fixation and staining for Sec31A to label ERES. Cells were imaged by confocal microscopy and ERES were counted using ImageJ. C, HeLa cells stably expressing mCherry-tagged mannosidase-II RUSH reporter. Cells were treated with biotin to release the reporter from the ER. After 20 min, a time point where most of the reporter has reached the Golgi, cells were fixed and immunostained for GM130 to label the Golgi apparatus. […] D, IgA secreting AMO-1 cells were treated for 3 h with the indicated doses of crizotinib and the amount of IgA in cell supernatant was determined by ELISA.

AMO-1 cells = test: IgA secretion by AMO-1 cells, ELISA of supernatant; assay type: cell-based, human; settings: 3 h
Protocol: as §6
Right: Secretion of Ig is reduced by ceritinib. The plasma cell line AMO-1 was washed and added to wells (10^6 cells/well) in the presence of titred ceritinib for 3 h. Supernatants were assayed for IgA secreted by the AMO-1 cells by use of the Human IgA ELISA Kit (Abcam, Cambridge, UK).
1×10^6/ml IgA-secreting AMO-1 cells were seeded in fresh medium with increasing doses of compounds of interest for 3 hr. […]

CLL cells = test: Viability of activated CLL cells from patients, CellTiter-Glo 72 h (IC50, DSS); assay type: cell-based, human; settings: CLL cells from 12 new patients
Protocol: CLL cells from patients were stimulated by adherent murine L cells expressing CD40L, BAFF and April for 24 h. The L cells were then removed by immuno-magnetic separation. Washed CLL cells were plated into 384-well plate format (10,000 cells/well) and tested against crizotinib at 5 concentrations in 10-fold dilutions (plates dispensed by an Echo acoustic dispenser, LabCyte Inc., San Jose, CA, USA). The plate was incubated in a humidified environment at 37° C. and 5% CO2. Cell viability was determined after 72 h using the CellTiter-Glo (Promega, Madison, WI, USA) ATP assay according to the manufacturer's instructions and using an Envision 2102 Multilabel reader (PerkinElmer, Shelton, CT, USA). Relative percentage cell viability was calculated by normalising luminescence units for each well to negative (DMSO 0.1%) and positive (100 μM BzCl) control wells. Curve fitting was conducted to obtain IC50 values.
Quantitative scoring of differential drug sensitivity for individual drugs was calculated as drug sensitivity scores (DSS values, Yadav et al., Scientific Reports 4: 5193, 2014). DSS values were calculated for integrated multiple dose-response relationships in high-throughput compound testing as shown.

plasma cells = test: Viability of in vitro-generated IRF4/BLIMP1 double positive end stage plasma cells; assay type: cell-based; settings: Homo sapiens, B-cell, 120 h; B-cells stimulated 5 days, inhibitor day 5-7
Description: Negatively selected normal B-cells from blood bank donors were stimulated with sCD40L, IL-21, IL-4 for 5 days. This protocol allows generation of 10-20% end differentiated plasma cells that express IRF4 and BLIMP1. From day 5-7, cells were exposed to titred crizotinib in A, or ceritinib in B.
In A and B, IRF4 vs BLIMP1 in gated CD19^+ B cells is shown. IRF4 and BLIMP1 double positive cells represent end stage plasma cells. Such plasma cells are gated (blue elliptic region) and percent plasma cells are shown. The conditions without inhibitor (0) and with linear Alk-inhibitor (crizotinib, A; ceritinib, B) are shown for concentrations 0.01 μM, 0.1 μM, 1 μM, 10 μM and 100 μM.

[1] = system: Hepatocellular carcinoma cells (HepG2); test: Apoptosis (cleaved caspase 3 immunoblot) in HepG2 cells with doxorubicin; assay type: cell-based; settings: 5 μM doxorubicin alone, 24 h
Protocol: In B, Hepatocellular carcinoma cells (HepG2) were treated with DMSO (untreated) or with increasing concentrations (1, 2 and 5 μM) of doxorubicin for 24 h and apoptosis was assessed by immunoblotting for cleaved caspase 3. […] Cells were also treated with the same concentrations of doxorubicin in the presence of 1 μM crizotinib for 24 h.
as §1

[2] = system: human L363-BTZ (bortezomib-resistant) myeloma cells; test: Intrafemoral L363-BTZ luciferase xenograft in NSG mice; assay type: in vivo; settings: 7 days treatment from day 10; crizotinib 50 mg/kg orally daily; bortezomib 1 mg/kg i.v. twice
Protocol: In this figure, immunocompromised NSG mice were intrafemorally injected with human L363-BTZ (bortezomib-resistant) myeloma cells. The cells were equipped with luciferase for in vivo monitoring of disease progression. After 10 days, mice were treated with bortezomib i.v. twice over a 7 day period and with crizotinib orally every day over the 7 day period. The images on the left show examples of tumour load in the different groups at days 4 and 7 of treatment (days 14 and 17 post tumour inoculation), and the graph on the right depicts the average luciferase signal for each mouse in each cohort (n=4) normalised to day 0 of the treatment (day 10 post tumour inoculation). Statistical significance between the groups was assessed with two-way ANOVA and between the time-points using one-way ANOVA with Tukey post-test.
NSG (NOD-scid IL2Rgamma^null) mice were obtained from The Jackson Laboratory (No. 005557, CA, USA) and kept in isolated ventilated cages with food ad libitum. Age matched (6-8 weeks old) mice were injected with 0.5×10^5 L363-BTZ_Luc+_TdTomato+ multiple myeloma cells (equipped with luciferase vector for monitoring, obtained from Addgene: #72486) into the right femur. Tumour growth was monitored twice over the week following luciferin injection (150 mg/kg, obtained from BioVision, CA, USA). […]

T1 sequence (P29376 17-864): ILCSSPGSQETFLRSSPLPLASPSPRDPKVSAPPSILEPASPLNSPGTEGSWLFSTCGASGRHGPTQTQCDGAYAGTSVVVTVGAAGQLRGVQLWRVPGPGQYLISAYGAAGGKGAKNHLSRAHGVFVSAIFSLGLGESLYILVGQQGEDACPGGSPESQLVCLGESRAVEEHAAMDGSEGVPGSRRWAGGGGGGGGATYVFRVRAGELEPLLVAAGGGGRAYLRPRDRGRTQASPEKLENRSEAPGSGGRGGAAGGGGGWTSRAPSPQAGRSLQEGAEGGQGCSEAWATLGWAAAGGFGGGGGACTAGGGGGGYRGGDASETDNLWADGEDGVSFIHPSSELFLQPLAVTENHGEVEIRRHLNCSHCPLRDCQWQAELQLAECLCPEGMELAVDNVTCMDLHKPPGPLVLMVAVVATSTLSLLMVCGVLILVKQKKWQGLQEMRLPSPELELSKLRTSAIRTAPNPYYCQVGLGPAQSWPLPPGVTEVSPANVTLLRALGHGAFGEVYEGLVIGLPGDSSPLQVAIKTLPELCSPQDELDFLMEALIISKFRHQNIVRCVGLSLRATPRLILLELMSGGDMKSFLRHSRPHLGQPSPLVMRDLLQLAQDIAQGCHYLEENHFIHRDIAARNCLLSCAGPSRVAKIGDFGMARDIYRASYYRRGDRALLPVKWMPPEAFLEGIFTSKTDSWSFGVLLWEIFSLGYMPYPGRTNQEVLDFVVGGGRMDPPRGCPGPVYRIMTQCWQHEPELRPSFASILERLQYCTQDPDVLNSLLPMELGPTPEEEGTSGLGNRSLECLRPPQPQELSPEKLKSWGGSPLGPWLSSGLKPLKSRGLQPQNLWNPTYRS

Compound: Cc1cc(Nc2ncc(Cl)c(Nc3ccccc3S(=O)(=O)C(C)C)n2)c(OC(C)C)cc1C1CCNCC1 [ceritinib, 5-chloro-2-N-(5-methyl-4-piperidin-4-yl-2-propan-2-yloxyphenyl)-4-N-(2-propan-2-ylsulfonylphenyl)pyrimidine-2,4-diamine]
- inhibition of LTK (LTK): inhibit LTK
- IC50 (L363-BTZ): 790 nM
- IC50 (L363): 1030 nM
- IC50 (AMO-1-BTZ): 2770 nM
- IC50 (AMO-1): 2090 nM
- cytotoxic activity against multiple myeloma cells (multiple myeloma cells): cytotoxic activity
- ER-to-Golgi trafficking (HeLa cells): inhibits ER-to-Golgi trafficking
- immunoglobulin (IgA) secretion (AMO-1 cells): reduced; also recorded: inhibits immunoglobulin secretion
- patients with susceptible CLL cells, cut-off DSS=10 (CLL cells): 11/12
- IC50 (plasma cells): < 1 nM

Compound: C[C@H]1Oc2cc(cnc2N)-c2c(nn(C)c2C#N)CN(C)C(=O)c2ccc(F)cc21 [lorlatinib]
- cytotoxic activity against multiple myeloma cells (multiple myeloma cells): did not efficiently kill myeloma cells
- patients with susceptible CLL cells, cut-off DSS=10 (CLL cells): 0/12

Compound: CN1CCN(c2ccc(C(=O)Nc3n[nH]c4ccc(Cc5cc(F)cc(F)c5)cc34)c(NC3CCOCC3)c2)CC1 [entrectinib, N-[5-[(3,5-difluorophenyl)methyl]-1H-indazol-3-yl]-4-(4-methylpiperazin-1-yl)-2-(oxan-4-ylamino)benzamide]
- cytotoxic activity against multiple myeloma cells (multiple myeloma cells): cytotoxic activity
- patients with susceptible CLL cells, cut-off DSS=10 (CLL cells): 12/12

Compound: C[C@@H]1CN(C(=O)c2ccc(NC(=O)c3cc(O[C@H](C)c4c(Cl)ccc(F)c4Cl)c(N)nn3)cc2)C[C@H](C)N1 [ensartinib, 6-amino-5-[(1R)-1-(2,6-dichloro-3-fluorophenyl)ethoxy]-N-[4-[(3R,5S)-3,5-dimethylpiperazine-1-carbonyl]phenyl]pyridazine-3-carboxamide]
- cytotoxic activity against multiple myeloma cells (multiple myeloma cells): cytotoxic activity
- patients with susceptible CLL cells, cut-off DSS=10 (CLL cells): 11/12

Compound: CCc1cc2c(cc1N1CCC(N3CCOCC3)CC1)C(C)(C)c1[nH]c3cc(C#N)ccc3c1C2=O [alectinib, 9-ethyl-6,6-dimethyl-8-(4-morpholin-4-ylpiperidin-1-yl)-11-oxo-5H-benzo[b]carbazole-3-carbonitrile]
- IC50 (L363-BTZ): 6220 nM
- IC50 (L363): 6120 nM
- IC50 (AMO-1-BTZ): 17600 nM
- IC50 (AMO-1): 13300 nM
- cytotoxic activity against multiple myeloma cells (multiple myeloma cells): cytotoxic activity

Compound: COc1cc(N2CCC(N3CCN(C)CC3)CC2)ccc1Nc1ncc(Cl)c(Nc2ccccc2P(C)(C)=O)n1 [brigatinib, 5-chloro-4-N-(2-dimethylphosphorylphenyl)-2-N-[2-methoxy-4-[4-(4-methylpiperazin-1-yl)piperidin-1-yl]phenyl]pyrimidine-2,4-diamine]
- patients with susceptible CLL cells, cut-off DSS=10 (CLL cells): 4/12

Compound: COc1cccc2c1C(=O)c1c(O)c3c(c(O)c1C2=O)C[C@@](O)(C(=O)CO)C[C@@H]3O[C@H]1C[C@H](N)[C@H](O)[C@H](C)O1 [doxorubicin]
- cell death (cleaved caspase 3) [1]: only weakly induces cell death

Compound: CC(C)C[C@H](NC(=O)[C@H](Cc1ccccc1)NC(=O)c1cnccn1)B(O)O [bortezomib]
- tumour burden (luciferase signal) [2]: confirmed proteasome inhibitor resistance
